In the test the target is alkaline phosphatase, placental type (Homo sapiens). Put plainly: PLAP enzyme inhibitors, dose response, selectivity assay for mouse IAP inhibitor project, biochemical, uHTS hits (AID 488879). The settings on record: purified human placental alkaline phosphatase, enzymatic inhibition.

Calls of active or inactive are those of the source. No rule for the calls is given here.

What is called IC50 is the concentration needed to halve the response being measured.

Consider `Cc1ccc(S(=O)(=O)Nc2ccc(O)c(Sc3ncn[nH]3)c2)cc1`, for which the IC50 was > 100 µM (inactive).
The value for `CC(C)=CCc1c(O)c(CC=C(C)C)c2c(c1O)-c1cc(O)c(O)cc1CC2` was > 100 µM (inactive); that for `CCN1/C(=C/C=C/c2sc3ccccc3[n+]2CC)Sc2ccccc21` was > 100 µM (inactive); that for `O=C1CC(c2ccc(O)c(O)c2)Oc2c1ccc(O)c2O` (stereo not drawn) was > 100 µM (inactive).
Take `O=C(CCN1C(=O)/C(=C/c2ccco2)SC1=S)Nc1ccc(O)cc1C(=O)O`: the IC50 is > 100 µM (inactive).
In the case of `Cc1cc(Cl)ccc1NC(=S)NCCC(c1ccccc1)c1ccccc1`, the IC50 was > 100 µM (inactive).
For `N#Cc1c(SCC(=O)Nc2nccs2)sc2c(O)cc(=O)[nH]c12` the value was > 100 µM (inactive).
The value for `C#CCOCCOCCOCCNc1nc(N2CCN(C(=O)CCCCCCCCCCNC(=O)[C@@H](CCSC)n3cc(CCO)nn3)CC2)nc(N2CCN(C(=O)CCCCCCCCCCNC(=O)[C@H]([C@@H](C)CC)n3cc(CCCCN=C(N)N)nn3)CC2)n1` was > 100 µM (inactive).
For `CN=c1scc(-c2ccco2)n1/N=C/c1ccc(O)c(O)c1` the value was > 100 µM (inactive).
With `Cc1cc(C)cc(NC(=S)NC2CC3CCCC(C2)N3Cc2cccs2)c1` (stereo not drawn), the half-inhibitory concentration (IC50) was 42 µM.
For `S=C(NCCC(c1ccccc1)c1ccccc1)Nc1cccc(Cl)c1` the value was 72.7 µM.
The value for `C#CCOCCOCCOCCNc1nc(N2CCN(C(=O)CCCCCCCCCCNC(=O)Cn3cc(C[C@@H](C)O)nn3)CC2)nc(N2CCN(C(=O)CCCCCCCCCCNC(=O)[C@@H](CCSC)n3cc(CCO)nn3)CC2)n1` was 39.9 µM; that for `COc1cc(NS(=O)(=O)c2ccc(NC(=S)NC(=O)/C=C/c3ccco3)cc2)ncn1` was 55.1 µM; that for `O=C(c1c(O)cc(O)cc1O)C1c2c(cc(O)c3c2O[C@H](c2ccc(O)cc2)[C@@H](O)C3)OC1c1ccc(O)cc1` (stereo partly drawn) was 23.2 µM.
With `CN1C(=O)/C(=C/C=C/c2ccco2)C(=O)NC1=S`, the IC50 is 24.4 µM.
With `Oc1ccc(-c2csc(Nc3cccc4ccccc34)n2)cc1O`, the IC50 was > 100 µM (inactive).
For `Cc1cc(F)ccc1S(=O)(=O)Nc1ccc(O)c(Sc2ncn[nH]2)c1` the value was 6.94 µM.
Regarding `Cc1ccc(N/C(N)=N/c2nc(C)cc(N3CCCCC3)n2)c(C)c1`, the half-inhibitory concentration (IC50) was 26.3 µM.
For `O=c1[nH]c2ccc(S(=O)(=O)N3CCCCC3)cc2o1` the value was > 100 µM (inactive); for `COc1cccc(NC(=S)NCCC(c2ccccc2)c2ccccc2)c1`, > 100 µM (inactive); for `C#CCOCCOCCOCCNc1nc(N2CCN(C(=O)CCCCCCCCCCNC(=O)Cn3cc(C[C@@H](C)O)nn3)CC2)nc(N2CCN(C(=O)CCCCCCCCCCNC(=O)[C@H](CCCCN)n3cc(C[C@@H](C)CC)nn3)CC2)n1`, > 100 µM (inactive).
Regarding `CCOc1ccc(S(=O)(=O)Nc2ccc(O)c(Sc3ncn[nH]3)c2)cc1`, the IC50 is 20.5 µM.
The value for `O=C(Nc1ccc(Cl)cc1)NC1CCCCC1Cc1ccco1` (stereo not drawn) was > 100 µM (inactive).
On to `COc1ccc(N2C(=O)/C(=C/c3ccco3)C(=O)NC2=S)cc1`, for which the IC50 is 64.9 µM.
As for `O=C(O)CNS(=O)(=O)c1ccc2c3c(cccc13)C(=O)N2`, the IC50 was > 100 µM (inactive).
For `N#CC(C#N)=Cc1ccc(O)c(O)c1`, the IC50 is > 100 µM (inactive).
For `CCN1C(=O)/C(=C2\SC(=S)N(NC(=O)c3ccccc3O)C2=O)c2ccccc21`, the IC50 was > 100 µM (inactive).
Turning to `S=C(NCCC(c1ccccc1)c1ccccc1)Nc1ccc(Cl)cc1`, the IC50 was > 100 µM (inactive).
In the case of `FC(F)Sc1ccc(NC(=S)NC(c2ccccc2)c2ccccc2)cc1`, the IC50 was > 100 µM (inactive).
As to `FC(F)Oc1ccc(NC(=S)NC2CCSc3ccccc32)cc1` (stereo not drawn), the IC50 is > 100 µM (inactive).
The value for `O=C1N=c2ccccc2=C1c1sc(=S)n(NC(=O)c2ccccc2)c1O` was 5.31 µM.
The value for `S=C(NCc1ccc(Cl)cc1Cl)NC1CCCCC1` was > 100 µM (inactive); that for `O=C(NNC(=O)c1cc2cc(Br)ccc2oc1=O)c1ccc(O)cc1O` was > 100 µM (inactive).
For `O=C1CNC(=S)N1CCc1ccc(O)c(O)c1`, the IC50 was > 100 µM (inactive).
For `Nc1nnc(CC(=O)N/N=C/c2cc([N+](=O)[O-])cc(Br)c2O)s1` the value was > 100 µM (inactive); for `Oc1cc(O)c2c(c1)O[C@H](c1ccc(O)c(O)c1)[C@@H](O)C2`, > 100 µM (inactive).
With `COc1ccc(C(=O)OCC(=O)Nc2ncc([N+](=O)[O-])s2)cc1OC`, the IC50 is > 100 µM (inactive).
As for `N#Cc1c(SCC(=O)Nc2nc3ccccc3s2)sc2c(O)cc(=O)[nH]c12`, the IC50 is > 100 µM (inactive).
For `O=C(CSc1nc2nn(-c3ccccc3)c(=O)c-2c2n1CCCCC2)c1ccc(O)c(O)c1`, the IC50 was > 100 µM (inactive).
The value for `CN(c1ccccc1C(=O)O)S(=O)(=O)c1ccc2c3c(cccc13)C(=O)N2` was > 100 µM (inactive).
The value for `Cc1ccc(Cl)c2c1=NC(=O)C=2c1[nH]c(=S)[nH]c1O` was > 100 µM (inactive); that for `O=C(/C=C/c1ccco1)NC(=S)Nc1ccc(C(=O)O)cc1` was > 100 µM (inactive); that for `Cc1ccc(S(=O)(=O)N2CCC(C(=O)Nc3ccc(C(C)C)cc3)CC2)cc1` was > 100 µM (inactive).
For `COc1ccc(C2CC(c3ccccc3Cl)=NN2c2ccc(S(N)(=O)=O)cc2)cc1` (stereo not drawn) the value was > 100 µM (inactive).
On to `NS(=O)(=O)c1ccc(-c2ccc(/C=C3\NC(=S)NC3=O)o2)cc1`, for which the IC50 is > 100 µM (inactive).
For `O=C(CSc1ncn[nH]1)CSc1ncn[nH]1` the value was 23 µM; for `O=C(O)CCCN1C(=O)/C(=C/C=C/c2ccco2)SC1=S`, > 100 µM (inactive); for `O=C(CCNS(=O)(=O)c1ccc2[nH]c(=O)oc2c1)Nc1ccccc1`, 42.5 µM.
For `O=C1/C(=C/c2ccc(O)c(O)c2)Oc2cc(O)ccc21` the value was 67.2 µM; for `O=C(CN1C(=O)/C(=C/c2ccco2)SC1=S)Nc1ccc(O)c(C(=O)O)c1`, 17.2 µM.
For `O=C1CSC(=S)N1/N=C/c1ccc(O)c(O)c1O` the value was > 100 µM (inactive).
For `Cc1ccc(CNC(=S)NC2CCC(C(C)(C)C)CC2)cc1` (stereo not drawn), the IC50 is > 100 µM (inactive).
The value for `COc1ccc(Cl)cc1NC(=S)NCCC(c1ccccc1)c1ccccc1` was 39.4 µM; that for `Clc1ccc(C(c2ccc(Cl)cc2)n2cc[n+](CC(OCc3ccc(Cl)cc3Cl)c3ccc(Cl)cc3Cl)c2)cc1` (stereo not drawn) was > 100 µM (inactive).
On to `COc1cc(NC(=S)NCCC(c2ccccc2)c2ccccc2)cc(OC)c1`, for which the IC50 is > 100 µM (inactive).
The value for `O=C1NN(c2cccc(Br)c2)C(=O)/C1=C/c1ccc(-c2cc([N+](=O)[O-])ccc2O)o1` was > 100 µM (inactive).
In the case of `O=C(COC(=O)c1ccccc1)Nc1ncc([N+](=O)[O-])s1`, the IC50 was 60.2 µM.
For the molecule `CCOc1ccc(S(=O)(=O)Nc2cc(Sc3ncn[nH]3)c3oc(=O)sc3c2)cc1`, the IC50 was > 100 µM (inactive).
For `Cc1nonc1C(=O)N/N=C/c1ccc(O)c(O)c1` the value was 18 µM.
For `Cc1cc(Cn2nc(-c3ccccc3)cc2C(=O)NCc2cccc(C(F)(F)F)c2)on1`, the IC50 was > 100 µM (inactive).
For `Cc1cccnc1Nc1nc(-c2ccc(O)c(O)c2)cs1` the value was > 100 µM (inactive); for `CCn1nc(C)c(CN2CCC(C(=O)Nc3cccc(-c4cccc(Cl)c4)c3)CC2)c1C`, > 100 µM (inactive); for `CCCn1ncc(CN2CCC(C(=O)Nc3cccc(-c4cccc(F)c4)c3)CC2)c1C`, > 100 µM (inactive).
The value for `O=C1/C(=C\c2cccc(O)c2O)SC(=S)N1Cc1ccccc1` was > 100 µM (inactive).
On to `O=C1c2cccc(O)c2C(=O)c2c(O)cc(CO)cc21`, for which the IC50 is > 100 µM (inactive).
For `CC(/C=C/C1(O)C(C)CC(=O)CC1(C)C)OC1OC(CO)C(O)C(O)C1O` (stereo not drawn) the value was > 100 µM (inactive); for `COc1ccc(CN2C3CCCC2CC(NC(=O)Nc2cccc(C)c2)C3)cc1` (stereo not drawn), 30.5 µM.
On to `COC(=O)C/C=N/N=C1/NC(=O)/C(=C/C(=O)O)S1`, for which the IC50 was 8.44 µM.
In the case of `CN(CC(=O)NC(c1ccccc1)c1ccccc1)Cc1nc2ccccc2c(=O)[nH]1`, the IC50 was > 100 µM (inactive).
As for `Cn1nc([N+](=O)[O-])nc1S(C)(=O)=O`, the IC50 was > 100 µM (inactive).
As to `O=C(NN1C(=O)CSC1=S)C(=O)NN1C(=O)CSC1=S`, the IC50 is > 100 µM (inactive).
As for `Cc1ccc(/C=C2\SC(=S)N(/N=C/c3cc([N+](=O)[O-])ccc3O)C2=O)o1`, the IC50 is > 100 µM (inactive).
For `CC(C)(C)c1ccc(O)c(N=Cc2cc3c(cc2[N+](=O)[O-])OCO3)c1` the value was > 100 µM (inactive).
For `NS(=O)(=O)c1ccc2c(c1)oc(=O)c1cc(S(N)(=O)=O)ccc12`, the IC50 is > 100 µM (inactive).
Turning to `O=C(COc1ccccc1C(=O)N/N=C\c1ccc(O)c(O)c1)N/N=C/c1ccc(O)c(O)c1`, the IC50 is > 100 µM (inactive).
For `Oc1cc(O)c2c(c1)OC(c1ccc(O)c(O)c1)C(O)C2` (stereo not drawn) the value was > 100 µM (inactive); for `C#CCOCCOCCOCCNc1nc(N2CCN(C(=O)CCCCCCCCCCNC(=O)Cn3cc(CCCCCN)nn3)CC2)nc(N2CCN(C(=O)CCCCCCCCCCNC(=O)[C@@H](CCSC)n3cc(CCO)nn3)CC2)n1`, > 100 µM (inactive); for `N#C/C(=C\c1ccc(O)c(O)c1)C(=O)Nc1cccc2ncccc12`, 7.32 µM.
For `O=C(O)CC(C(=O)O)N1C(=O)/C(=C/C=C/c2ccco2)SC1=S` (stereo not drawn) the value was > 100 µM (inactive).
The value for `O=c1ccc2c(-c3ccccc3S(=O)(=O)O)c3ccc(O)c(O)c3oc-2c1O` was > 100 µM (inactive); that for `CCn1c(SCC(=O)c2ccc(O)c(O)c2)nnc1-c1ccccc1OC` was > 100 µM (inactive); that for `CCc1cc(Cn2nc(-c3ccccc3)cc2C(=O)NCc2cccc(Br)c2)on1` was > 100 µM (inactive).
As to `O=C(NN1C(=O)/C(=C/c2ccc(O)c(O)c2)SC1=S)c1ccccc1`, the IC50 was > 100 µM (inactive).
